Test results taken from paper PMC7473865, “Repertoire-scale determination of class II MHC peptide binding via yeast display improves antigen prediction” (Nature Communications, 2020).
Read-outs that look alike come from different tables or passages of the source. Ends that are not written are not given here.

Tests used:
Format in all cases: binding
[1] = molecular target: T1, recombinant HLA-DR402 (HLA-DRA1*01:01, HLA-DRB1*04:02) (Homo sapiens, UniProt P01903+P01911, A100E/A169T/F76Y/K127E/L162R/M171V/N62H/P40V/Q125Y/Q99D/R42H/S133A/S149N/S66Y/V209L/W38E); experiment: biochemical
T1 construct: poly-histidine (C); made in house; host or cells: High Five (Hi5) insect cells, baculovirus (pAcGP67a)

[2] = molecular target: T2, recombinant HLA-DR401 (HLA-DRA1*01:01, HLA-DRB1*04:01) (Homo sapiens, UniProt P01903+P01911, A100K/A169T/F76Y/I96L/K127E/L162R/M171V/N62H/P40V/Q125Y/R42H/S133A/S149N/S66Y/V115G/V209L/W38E); experiment: biochemical
T2 construct: poly-histidine (C); made in house; host or cells: High Five (Hi5) insect cells, baculovirus (pAcGP67a)

[3] = molecular target: yeast-displayed HLA-DR401 (Homo sapiens, UniProt P01903+P01911, A100K/A169T/D72E/F76Y/I96L/K127E/L162R/M171V/M61L/P40V/Q125Y/R42H/S133A/S149N/S66Y/V115G/V157M/V209L/W38E); experiment: Yeast-display randomized peptide library selection and deep sequencing, HLA-DR401; set-up: key: 1=binder; 0=non-binder
[4] = HLA-DR402, estimated from two-point fluorescence polarization competition, Fig5F, read-out: Estimated IC50
[5] = SuppFig8C, yeast-display library peptides

| Compound | IC50 [1] [nM] | IC50 [1, 4] [nM] | other results |
| --- | --- | --- | --- |
| AALWRHPGHVGWEEG | 74.9 | – | – |
| AAVTERPINLGWEEG | 51.3 | – | – |
| ASKMRMATPLLMQAG | – | < 10 | IC50 [2]: 5170 nM |
| AAQVDWPTLPMWEEG | 63.6 | – | – |
| CC[C@H](C)[C@H](NC(=O)CNC(=O)[C@H](CCCNC(=N)N)NC(=O)[C@H](CCCCN)NC(=O)[C@@H](NC(=O)[C@H](CCSC)NC(=O)[C@H](CCCNC(=N)N)NC(=O)[C@@H](NC(=O)[C@H](CC(C)C)NC(=O)[C@H](CCC(=O)O)NC(=O)[C@H](CCSC)NC(=O)[C@@H](NC(=O)[C@H](CCSC)NC(=O)[C@@H](N)[C@@H](C)O)C(C)C)C(C)C)[C@@H](C)CC)C(=O)N[C@@H](CC(N)=O)C(=O)O [TMVMELVRMIKRGIN] | – | 870 | – |
| CC[C@H](C)[C@H](NC(=O)[C@H](C)NC(=O)[C@@H](NC(=O)[C@H](C)NC(=O)[C@H](CCCNC(=N)N)NC(=O)[C@H](CCCNC(=N)N)NC(=O)CNC(=O)[C@@H](NC(=O)[C@H](CCSC)NC(=O)[C@@H](NC(=O)[C@H](Cc1ccccc1)NC(=O)[C@H](CCC(=O)O)NC(=O)[C@H](CCC(=O)O)NC(=O)[C@@H](N)Cc1ccc(O)cc1)[C@@H](C)O)C(C)C)[C@@H](C)O)C(=O)N[C@@H](CC(C)C)C(=O)O | – | 4570 | – |
| AAANRRPSLLGWEEG | – | < 10 | IC50 ([1]; read-out: IC50): < 10 nM |
| LGFVFTLTVPSERGL | – | 409 | – |
| AACRKHGSSIGWEEG | 132 | – | – |
| AQKIVEWDSRKSKYG | 62 | – | – |
| AAPRRHANHLGWEEG | 130 | – | – |
| AAVTEEKSHLGWEEG | 58.3 | – | – |
| AALDAHRDHMAWEEG | – | < 10 | IC50 ([1]; read-out: IC50): < 10 nM |
| CC[C@H](C)[C@H](NC(=O)[C@@H]1CCCN1C(=O)[C@H](Cc1ccc(O)cc1)NC(=O)[C@H](CCCCN)NC(=O)[C@H](CCSC)NC(=O)[C@H](C)NC(=O)[C@H](CCSC)NC(=O)[C@H](CCSC)NC(=O)[C@H](Cc1c[nH]c2ccccc12)NC(=O)[C@H](CCCCN)NC(=O)[C@H](CCSC)NC(=O)[C@H](CCCNC(=N)N)NC(=O)[C@H](CC(C)C)NC(=O)[C@H](C)NC(=O)[C@@H]1CCCN1)C(=O)O | – | 1310 | – |
| AAAKYRLHVKSGWSGGSGGG | – | – | label (1=binder, 0=non-binder) ([3]; Fig6B data set): 0 |
| AALTGKLGHRGWEEG | – | < 10 | IC50 ([1]; read-out: IC50): < 10 nM |

| Compound | IC50 [1] [nM] | IC50 [1, 4] [nM] | other results |
| --- | --- | --- | --- |
| AAEHVWPSLVGWEEG | 25.6 | – | – |
| AAVSDRLPLRGWEEG | – | < 10 | IC50 ([1]; read-out: IC50): < 10 nM |
| AAALSTSWLFCSRCGGSGGG | – | – | label (1=binder, 0=non-binder) ([3]; Fig6B data set): 0; label (1=binder, 0=non-binder) [3, 5]: 0 |
| AAANWSSSPDMPLVGGSGGG | – | – | label (1=binder, 0=non-binder) ([3]; Fig6B data set): 0; label (1=binder, 0=non-binder) [3, 5]: 0 |
| AAVREKCDHVGWEEG | 75.5 | – | – |
| CC[C@H](C)[C@H](NC(=O)[C@H](CCC(=O)O)NC(=O)[C@@H](N)[C@@H](C)O)C(=O)N[C@H](C(=O)N[C@@H](CCCNC(=N)N)C(=O)N[C@@H](CCSC)C(=O)N[C@@H](CCSC)C(=O)N[C@@H](CCC(=O)O)C(=O)N[C@@H](CO)C(=O)N[C@@H](C)C(=O)N[C@@H](CCCNC(=N)N)C(=O)N1CCC[C@H]1C(=O)N[C@@H](CCC(=O)O)C(=O)N[C@@H](CC(=O)O)C(=O)N[C@H](C(=O)O)C(C)C)[C@@H](C)CC | – | 83.1 | – |
| ASKIAFKIVSQEPAG | 27.8 | – | – |
| AAGRSHRTHEGWEEG | 10 | – | – |
| AAAMQRRNPALLLFGGSGGG | – | – | label (1=binder, 0=non-binder) ([3]; Fig6B data set): 0; label (1=binder, 0=non-binder) [3, 5]: 0 |
| NRMVLASTTAKAMEQ | – | < 10 | IC50 ([1]; read-out: IC50): < 10 nM |
| AAVTNWGCEVGWEEG | 136 | – | – |
| AAACRKRTWLGWEEG | – | < 10 | IC50 ([1]; read-out: IC50): < 10 nM |
| AATERRPTLMAWEEG | – | < 10 | IC50 ([1]; read-out: IC50): < 10 nM |
| AAADARCSNRSDLMGGSGGG | – | – | label (1=binder, 0=non-binder) ([3]; Fig6B data set): 0; label (1=binder, 0=non-binder) [3, 5]: 0 |
| AAARGALTTQLLAIGGSGGG | – | – | label (1=binder, 0=non-binder) [3, 5]: 0 |
